Counter-ions that a name gives are not always drawn.
Target: T1, hGPR119 (Homo sapiens, UniProt Q8TDV5)
T1 construct: expressed in transfected cells; host or cells: CHO cells (CHO-hGPR119)
T1 sequence (Q8TDV5 1-335): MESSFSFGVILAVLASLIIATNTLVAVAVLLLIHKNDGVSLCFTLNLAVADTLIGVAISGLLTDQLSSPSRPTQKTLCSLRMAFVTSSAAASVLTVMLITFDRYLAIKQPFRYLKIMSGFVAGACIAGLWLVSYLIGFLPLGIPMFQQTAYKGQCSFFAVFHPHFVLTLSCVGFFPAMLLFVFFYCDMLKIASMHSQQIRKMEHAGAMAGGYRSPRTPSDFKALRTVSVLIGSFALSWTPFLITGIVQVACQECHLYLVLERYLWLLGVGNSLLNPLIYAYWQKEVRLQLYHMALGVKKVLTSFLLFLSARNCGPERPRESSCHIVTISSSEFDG
Test: In vitro cyclic AMP assay (Cisbio HTRF) in CHO-hGPR119 cells
Format: cell-based
Details: cAMP; for activation at 1 µM: 1 h, 60 min, read-out: Induction (% induction at 1 μM); for EC50: class symbols, legend not given
Experimental: cAMP measurements were done using Cisbio dynamic 2 HTRF kit according to the manufacturer's protocol. Briefly, CHO-hGPR119 cells were plated at a cell density of 5000 cells/well/5 μl into a white small volume 384 well plate. The final concentrations of IBMX and DMSO used were 1 mM and 0.5% respectively. Cells were treated with various concentrations of the test compound for 60 min at room temperature. Cells were lysed by buffer containing Anti-cAMP antibody and d2-cAMP reagents and incubated for 1 hour at room temperature. HTRF was measured at 337 nm excitation and emission wavelengths of 665 nm and 620 nm on a microplate reader (Flurostar, BMG Labtech). Graphpad prism software was utilized for EC50 determinations.

Row | activation at 1 µM | EC50 | Structure (SMILES)
1 | 73% | A+ | CC(C)c1noc(N2CCC([C@@H](C)Oc3nn4cc(-c5ccc(S(C)(=O)=O)nc5)nc4s3)CC2)n1 [Compound 1058, (R)-3-isopropyl-5-(4-(1-((6-(6-(methylsulfonyl)pyridin-3-yl)imidazo[2,1-b][1,3,4]thiadiazol-2-yl)oxy)ethyl)piperidin-1-yl)-1,2,4-oxadiazole]
2 | 3% | – | CC(C)c1noc(C2CCN(c3nsnc3Oc3ccc(-n4cnnn4)cc3)CC2)n1 [Compound 1003, 5-(1-(4-(4-(1H-tetrazol-1-yl)phenoxy)-1,2,5-thiadiazol-3-yl)piperidin-4-yl)-3-isopropyl-1,2,4-oxadiazole]
3 | 41% | – | CC(C)c1noc(N2CCC(c3cn4nc(-c5ccc(S(C)(=O)=O)cc5)sc4n3)CC2)n1 [Compound 1032, 3-isopropyl-5-(4-(2-(4-(methylsulfonyl)phenyl)imidazo[2,1-b][1,3,4]thiadiazol-6-yl)piperidin-1-yl)-1,2,4-oxadiazole]
4 | 1% | – | CC(C)OC(=O)N1CCN(c2nn3cc(-c4ccc(S(C)(=O)=O)cc4)nc3s2)CC1 [Compound 1020, isopropyl 4-(6-(4-(methylsulfonyl)phenyl)imidazo[2,1-b][1,3,4]thiadiazol-2-yl)piperazine-1-carboxylate]
5 | 15% | – | C[C@@H](Oc1nn2cc(-c3ccc(S(C)(=O)=O)cc3)nc2s1)C1CCN(c2nc(C(F)(F)F)no2)CC1 [Compound 1076, 2-((R)-1-(1-(3-(trifluoromethyl)-1,2,4-oxadiazol-5-yl)piperidin-4-yl)ethoxy)-6-(4-(methylsulfonyl)phenyl)imidazo[2,1-b][1,3,4]thiadiazole]
6 | 41% | – | CC(C)c1noc(N2CCC(c3nn4cc(-c5ccc(S(C)(=O)=O)cc5)nc4s3)CC2)n1 [Compound 1027, 3-isopropyl-5-(4-(6-(4-(methylsulfonyl)phenyl)imidazo[2,1-b][1,3,4]thiadiazol-2-yl)piperidin-1-yl)-1,2,4-oxadiazole]
7 | 56% | – | CC(C)c1noc(N2CCC(C(C)Oc3nn4cc(-c5ccc(C(=O)N(C)C)cc5)nc4s3)CC2)n1 (stereo not shown) [Compound 1048, 4-(2-(1-(1-(3-isopropyl-1,2,4-oxadiazol-5-yl)piperidin-4-yl)ethoxy)imidazo[2,1-b][1,3,4]thiadiazol-6-yl)-N,N-dimethylbenzamide]
8 | -8% | – | CC(C)c1noc(C2CCN(c3nsnc3-c3ccc(S(C)(=O)=O)cc3)CC2)n1 [Compound 1007, 3-isopropyl-5-(1-(4-(4-(methylsulfonyl)phenyl)-1,2,5-thiadiazol-3-yl)piperidin-4-yl)-1,2,4-oxadiazole]
9 | 21% | – | COCCNC(=O)c1ccc(-c2nn3cc(C4CCN(C(=O)OC(C)C)CC4)nc3s2)cc1 [Compound 1035, isopropyl 4-(2-(4-((2-methoxyethyl)carbamoyl)phenyl)imidazo[2,1-b][1,3,4]thiadiazol-6-yl)piperidine-1-carboxylate]
10 | 54% | – | CC(C)c1noc(N2CCC([C@H](C)Oc3nn4cc(-c5ccc(S(C)(=O)=O)c(F)c5)nc4s3)CC2)n1 [Compound 1078, 2-((S)-1-(1-(3-isopropyl-1,2,4-oxadiazol-5-yl)piperidin-4-yl)ethoxy)-6-(3-fluoro-4-(methylsulfonyl)phenyl)imidazo[2,1-b][1,3,4]thiadiazole]
11 | 11% | – | COCCNC(=O)c1ccc(-c2cn3nc(N4CCC(c5nc(C(C)C)no5)CC4)sc3n2)cc1 [Compound 1039, 4-(2-(4-(3-isopropyl-1,2,4-oxadiazol-5-yl)piperidin-1-yl)imidazo[2,1-b][1,3,4]thiadiazol-6-yl)-N-(2-methoxyethyl)benzamide]
12 | 24% | – | CC(C)c1noc(C2CCN(c3nn4cc(-c5ccc(C(=O)N(C)C)cc5)nc4s3)CC2)n1 [Compound 1036, 4-(2-(4-(3-isopropyl-1,2,4-oxadiazol-5-yl)piperidin-1-yl)imidazo[2,1-b][1,3,4]thiadiazol-6-yl)-N,N-dimethylbenzamide]
13 | 16% | – | CC(C)c1noc(N2CCC(COc3nn4cc(-c5ccncc5)nc4s3)CC2)n1 [Compound 1054, 3-isopropyl-5-(4-(((6-(pyridin-4-yl)imidazo[2,1-b][1,3,4]thiadiazol-2-yl)oxy)methyl)piperidin-1-yl)-1,2,4-oxadiazole]
14 | 4% | – | CC(C)c1noc(C2CCN(c3nn4cc(COc5ccc(S(C)(=O)=O)cc5)nc4s3)CC2)n1 [Compound 1040, 3-isopropyl-5-(1-(6-((4-(methylsulfonyl)phenoxy)methyl)imidazo[2,1-b][1,3,4]thiadiazol-2-yl)piperidin-4-yl)-1,2,4-oxadiazole]
15 | 64% | – | CC(C)c1noc(N2CCC(C(C)Oc3nn4cc(-c5ccc(Cl)nc5)nc4s3)CC2)n1 (stereo not shown) [Compound 1075, 2-(1-(1-(3-isopropyl-1,2,4-oxadiazol-5-yl)piperidin-4-yl)ethoxy)-6-(6-chloropyridin-3-yl)imidazo[2,1-b][1,3,4]thiadiazole]

Continued, molecule first:

Row | Structure (SMILES) | activation at 1 µM | EC50
16 | COc1cnccc1-c1cn2nc(OC(C)C3CCN(c4nc(C(C)C)no4)CC3)sc2n1 (stereo not shown) [Compound 1095, 2-(1-(1-(3-isopropyl-1,2,4-oxadiazol-5-yl)piperidin-4-yl)ethoxy)-6-(3-methoxypyridin-4-yl)imidazo[2,1-b][1,3,4]thiadiazole] | 8% | –
17 | CC(C)c1cnc(N2CCC(C(C)Oc3nn4cc(-c5ccc(S(C)(=O)=O)cc5)nc4s3)CC2)nc1 (stereo not shown) [Compound 1070, 2-(1-(1-(5-isopropylpyrimidin-2-yl)piperidin-4-yl)ethoxy)-6-(4-(methylsulfonyl)phenyl)imidazo[2,1-b][1,3,4]thiadiazole] | 55% | –
18 | CCOC(=O)N1CCC([C@H](C)Oc2nn3cc(-c4ccc(S(C)(=O)=O)cc4F)nc3s2)CC1 [Compound 1113, ethyl 4-((S)-1-(6-(2-fluoro-4-(methylsulfonyl)phenyl)imidazo[2,1-b][1,3,4]thiadiazol-2-yloxy)ethyl)piperidine-1-carboxylate] | 68% | A+
19 | CC(C)c1noc(N2CCC(COc3nsc(-c4ccc(S(C)(=O)=O)nc4)n3)CC2)n1 [Compound 1120, 5-(3-((1-(3-isopropyl-1,2,4-oxadiazol-5-yl)piperidin-4-yl)methoxy)-1,2,4-thiadiazol-5-yl)-2-(methylsulfonyl)pyridine] | 15% | –
20 | CC(C)c1noc(C2CCN(c3nsnc3COc3ccc(S(C)(=O)=O)cc3F)CC2)n1 [Compound 1006, 5-(1-(4-((2-fluoro-4-(methylsulfonyl)phenoxy)methyl)-1,2,5-thiadiazol-3-yl)piperidin-4-yl)-3-isopropyl-1,2,4-oxadiazole] | 9% | –
21 | CC(C)c1noc(C2CCN(c3nsnc3C(=O)Nc3ccc(S(C)(=O)=O)cc3F)CC2)n1 [Compound 1012, N-(2-fluoro-4-(methylsulfonyl)phenyl)-4-(4-(3-isopropyl-1,2,4-oxadiazol-5-yl)piperidin-1-yl)-1,2,5-thiadiazole-3-carboxamide] | 22% | –
22 | CCCc1cnc(N2CCC([C@H](C)Oc3nn4cc(-c5ccnc(OC)c5)nc4s3)CC2)nc1 [Compound 1094, 2-((S)-1-(1-(5-propylpyrimidin-2-yl)piperidin-4-yl)ethoxy)-6-(2-methoxypyridin-4-yl)imidazo[2,1-b][1,3,4]thiadiazole] | 68% | –
23 | CC(C)c1noc(N2CCC(Oc3nc(-c4ccc(S(C)(=O)=O)cc4)ns3)CC2)n1 [Compound 1116, 4-(3-(4-(methylsulfonyl)phenyl)-1,2,4-thiadiazol-5-yloxy)-1-(3-isopropyl-1,2,4-oxadiazol-5-yl)piperidine] | 36% | –
24 | CCc1cnc(N2CCC([C@@H](C)Oc3nn4cc(-c5ccc(S(C)(=O)=O)cc5)nc4s3)CC2)nc1 [Compound 1062, (R)-2-(1-(1-(5-ethylpyrimidin-2-yl)piperidin-4-yl)ethoxy)-6-(4-(methylsulfonyl)phenyl)imidazo[2,1-b][1,3,4]thiadiazole] | 78% | A+
25 | CC(C)c1noc(N2CCC(C(C)Oc3nn4cc(-c5ccncc5C(F)(F)F)nc4s3)CC2)n1 (stereo not shown) [Compound 1092, 2-(1-(1-(3-isopropyl-1,2,4-oxadiazol-5-yl)piperidin-4-yl)ethoxy)-6-(3-(trifluoromethyl)pyridin-4-yl)imidazo[2,1-b][1,3,4]thiadiazole] | 25% | –
26 | CCCc1cnc(N2CCC([C@H](C)Oc3nn4cc(-c5ccc(S(C)(=O)=O)cc5F)nc4s3)CC2)nc1 [Compound 1085, 2-((S)-1-(1-(5-propylpyrimidin-2-yl)piperidin-4-yl)ethoxy)-6-(2-fluoro-4-(methylsulfonyl)phenyl)imidazo[2,1-b][1,3,4]thiadiazole] | 74% | A++
27 | CC(C)c1noc(N2CCC([C@@H](C)Oc3nn4cc(-c5ccc(-c6nnn[nH]6)cc5F)nc4s3)CC2)n1 [Compound 1105, 2-((R)-1-(1-(3-isopropyl-1,2,4-oxadiazol-5-yl)piperidin-4-yl)ethoxy)-6-(2-fluoro-4-(1H-tetrazol-5-yl)phenyl)imidazo[2,1-b][1,3,4]thiadiazole hydrochloride] | 30% | –

Source: patent US10208030B2, “GPR119 agonist compounds” (Mankind Pharma Ltd., priority 2016, dated 2019)
